Experimental data reported in patent US9365556B2, “3,5-diaminopyrazole kinase inhibitors” (Axikin Pharmaceuticals, Inc., priority 2012, dated 2016).

Target: T1, kinase domain protein of RC kinase (Homo sapiens, UniProt Q56UN5)
T1 sequence (Q56UN5 1061-1324 limits assumed): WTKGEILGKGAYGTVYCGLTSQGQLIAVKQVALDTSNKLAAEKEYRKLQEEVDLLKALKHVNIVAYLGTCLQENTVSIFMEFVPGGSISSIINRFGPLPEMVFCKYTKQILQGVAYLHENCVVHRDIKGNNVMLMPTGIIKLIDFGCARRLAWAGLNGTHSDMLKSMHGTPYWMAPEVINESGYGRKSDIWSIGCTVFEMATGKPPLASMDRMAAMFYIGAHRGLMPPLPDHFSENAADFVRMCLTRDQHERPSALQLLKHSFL
Assay: Enzymatic assay for kinase inhibitory activity (Crebtide substrate, LANCE read-out)
Type: biochemical
Details: compound at 1 μM
Protocol: Solutions of a test compound, Crebtide (a substrate), a kinase, and ATP were prepared using 1×MAPK Buffer (50 mM HEPES, 1 mM EGTA, […], 10 mM MgCl2, 2 mM DTT, and 0.01% Tween 20).
To each well, the test compound (1 μL) was first added (in duplicate) to reach a final concentration of 1 μM or 1×IC50 of the compound. The kinase (5 μl) was then added to each well to reach a final concentration of […] for the kinase domain or […] for the full-length domain. Each plate included a positive and negative controls in duplicate wells. Crebtide (2.5 μL) was then added to each well in duplicate to reach a final concentration of 50 nM. If the full-length kinase was used, the plates were incubated for 45 min at room temperature before proceeding further. ATP (2.5 μL) was added to each well to reach a final concentration of 1 μM for the kinase domain and 3 μM for the full-length.
After the addition of ATP, the plates were incubated for 45 min at room temperature. During the incubation, an EDTA solution (40 mM) and anti-Crebtide ([…]) were prepared. Additionally, a detection buffer stock solution was diluted ten fold before use.
After the incubation, the anti-Crebtide (5 μL) and EDTA (5 μL) were added to each well to reach their final concentrations of […] and 10 mM, respectively. The plates were allowed to develop at room temperature for 45 min. The plates were then read at 665 nm and 615 nm using Perkin Elmer Lance machine.
The biological results of inhibition of the kinase domain protein of RC kinase are summarized in Tables 2 and 3, wherein A represents at least 50% inhibition of the RC kinase activity at 1 μM; B represents no greater than 50% but at least 20% inhibition of the RC kinase activity at 1 μM; C represents no greater than 20% but at least 5% inhibition of the RC kinase activity at 1 μM; and D represents no greater than 5% inhibition of the RC kinase activity at 1 μM.

Row | inhibition at 1 µM [%] | Structure (SMILES) | Activity (inhibition of the RC kinase activity) | also measured
1 | 5 to 20 | NC(=O)c1c(Nc2cccc(Cl)c2)n[nH]c1/N=C/c1ccc(OCCO)cc1 [Compound B109] |  | 
2 | 5 to 20 | COc1cc(/C=N/c2[nH]nc(Nc3cccc(Cl)c3)c2C(N)=O)ccc1OCc1cnc(Cl)s1 [Compound B55] |  | 
3 | ≤ 5 | NC(=O)c1c(Nc2cccc(Cl)c2)n[nH]c1/N=C/c1ccc(OCc2ccc(F)cc2)cc1 [Compound B107] |  | 
4 | 5 to 20 | NC(=O)c1c(Nc2cccc(Cl)c2)n[nH]c1/N=C/c1c(O)cccc1Cl [Compound B103] |  | 
5 | 20 to 50 | COc1ccc(F)cc1/C=N/c1[nH]nc(Nc2cccc(Cl)c2)c1C(N)=O [Compound B58] |  | 
6 | ≤ 5 | Cc1ccc(/C=N/c2[nH]nc(Nc3cccc(Cl)c3)c2C(N)=O)c(O)c1 [Compound B106] |  | 
7 | ≤ 5 | N#Cc1cc(/C=N/c2[nH]nc(Nc3cccc(Cl)c3)c2C(N)=O)ccc1F [Compound B87] |  | 
8 | 5 to 20 | NC(=O)c1c(Nc2cccc(Cl)c2)n[nH]c1/N=C/c1ccc(Oc2nccc(C(F)(F)F)n2)cc1 [Compound B75] |  | 
9 | ≤ 5 | NC(=O)c1c(Nc2cccc(Cl)c2)n[nH]c1/N=C/c1ccc(Cl)nc1 [Compound B59] |  | 
10 | 5 to 20 | NC(=O)c1c(Nc2cccc(Cl)c2)n[nH]c1/N=C/c1cccc(Oc2ncccn2)c1 [Compound B77] |  | 
11 | ≥ 50 | Cc1cc(/C=N/c2[nH]nc(Nc3cccc(Cl)c3)c2C(N)=O)cc(C)c1O [Compound B61, 3-((3-chlorophenyl)amino)-5-((4-hydroxy-3,5-dimethylbenzylidene)amino)-1H-pyrazole-4-carboxamide] |  | 
12 | ≥ 50 | NC(=O)c1c(Nc2cccc(Cl)c2)n[nH]c1/N=C/c1ccc(OC(F)F)c(O)c1 [Compound B68] |  | 
13 | 5 to 20 | NC(=O)c1c(Nc2cccc(Cl)c2)n[nH]c1/N=C/c1ccc(Cl)cc1O [Compound B94] |  | 
14 | 20 to 50 | NC(=O)c1c(Nc2cccc(Cl)c2)n[nH]c1/N=C/c1cccc(OCCO)c1 [Compound B104, 3-((3-chlorophenyl)amino)-5-((3-(2-hydroxyethoxy)benzylidene)amino)-1H-pyrazole-4-carboxamide] |  | 

Further lines, the molecule ahead of its results:

Row | Structure (SMILES) | inhibition at 1 µM [%] | Activity (inhibition of the RC kinase activity) | also measured
15 | Cn1c(Cl)c(/C=N/c2[nH]nc(Nc3cccc(Cl)c3)c2C#N)c2ccccc21 [Compound A78] |  | C (no greater than 20% but at least 5% inhibition of the RC kinase activity at 1 μM) | 
16 | NC(=O)c1c(Nc2ccccc2)n[nH]c1/N=C/c1ccc(O)cc1 [Compound B10] |  | A (at least 50% inhibition of the RC kinase activity at 1 μM) | 
17 | COc1cccc(O)c1/C=N/c1[nH]nc(Nc2cccc(Cl)c2)c1C(N)=O [Compound B48] |  | C (no greater than 20% but at least 5% inhibition of the RC kinase activity at 1 μM) | 
18 | CC(C)(C)c1ccc(Nc2[nH]nc(N=Cc3ccc(O)cc3)c2C#N)cc1 [Compound A57, 5-((4-(tert-butyl)phenyl)amino)-3-((4-hydroxybenzylidene)amino)-1H-pyrazole-4-carbonitrile] | 5 to 20 |  | 
19 | N#Cc1c(Nc2cccc(Cl)c2)n[nH]c1/N=C/c1ccc(Oc2ncccn2)cc1 [Compound A77] |  |  | Activity (inhibition of the RC kinase activity) (1 µM): D (no greater than 5% inhibition of the RC kinase activity at 1 μM)
20 | NC(=O)c1c(Nc2ccc(Cl)cc2)n[nH]c1/N=C/c1ccccc1OCC(=O)O [Compound B37] | ≤ 5 |  | 
21 | NC(=O)c1c(Nc2cccc(Cl)c2)n[nH]c1/N=C/c1c[nH]c2c(F)c(F)c(F)c(F)c12 [Compound B76] |  | D (no greater than 5% inhibition of the RC kinase activity at 1 μM) | 
22 | N#Cc1c(Nc2ccc(Cl)c(Cl)c2)n[nH]c1/N=C/c1ccc(O)cc1O [Compound A59] | ≤ 5 |  | 
23 | N#Cc1c(Nc2cccc(Cl)c2)n[nH]c1/N=C/c1nc(-c2ccccc2)[nH]c1Cl [Compound A72] |  | B (no greater than 50% but at least 20% inhibition of the RC kinase activity at 1 μM) | 
24 | Cn1nc(C(F)(F)F)c(/C=N/c2[nH]nc(Nc3cccc(Cl)c3)c2C#N)c1Cl [Compound A69] |  | C (no greater than 20% but at least 5% inhibition of the RC kinase activity at 1 μM) | 
25 | COc1ccc(/C=N/c2[nH]nc(Nc3cccc(Cl)c3)c2C#N)c(C)c1C [Compound A89] |  | C (no greater than 20% but at least 5% inhibition of the RC kinase activity at 1 μM) | 
26 | N#Cc1c(Nc2cc(Cl)cc(Cl)c2)n[nH]c1/N=C/c1ccc(O)cc1 [Compound A56] | 5 to 20 |  | 
27 | N#Cc1c(NC2CCCCC2)n[nH]c1/N=C/c1ccc(O)cc1 [Compound A49, 3-(cyclohexylamino)-5-((4-hydroxybenzylidene)amino)-1H-pyrazole-4-carbonitrile] | ≤ 5 |  | 
28 | CN1CCN(c2ccc(/C=N/c3[nH]nc(Nc4cccc(Cl)c4)c3C#N)cc2)CC1 [Compound A74] |  | C (no greater than 20% but at least 5% inhibition of the RC kinase activity at 1 μM) | 
29 | NC(=O)c1c(Nc2cccc(Cl)c2)n[nH]c1/N=C/c1ccc(OC(F)(F)F)c(F)c1 [Compound B90] |  | D (no greater than 5% inhibition of the RC kinase activity at 1 μM) | 
30 | NC(=O)c1c(Nc2cccc(Cl)c2)n[nH]c1/N=C/c1ccc(-c2ccccn2)s1 [Compound B60] |  | D (no greater than 5% inhibition of the RC kinase activity at 1 μM) | 

Row | Structure (SMILES) | inhibition at 1 µM [%] | Activity (inhibition of the RC kinase activity) | also measured
31 | N#Cc1c(Nc2cccc(Cl)c2)n[nH]c1/N=C/c1ccc(-c2ccccn2)s1 [Compound A2] | 20 to 50 |  | 
32 | N#Cc1c(Nc2ccc(Cl)cc2)n[nH]c1/N=C/c1ccc[nH]1 [Compound A39] |  | D (no greater than 5% inhibition of the RC kinase activity at 1 μM) | 
33 | N#Cc1c(Nc2ccccc2)n[nH]c1/N=C/c1ccc[nH]1 [Compound A28] | 5 to 20 |  | 
34 | COc1ccc(Nc2n[nH]c(/N=C/c3ccccc3)c2C#N)cc1 [Compound A45] |  | D (no greater than 5% inhibition of the RC kinase activity at 1 μM) | 
35 | NC(=O)c1c(Nc2cccc(Cl)c2)n[nH]c1/N=C/c1ccc(Oc2ccc(C(F)(F)F)cn2)cc1 [Compound B63] |  | B (no greater than 50% but at least 20% inhibition of the RC kinase activity at 1 μM) | 
36 | NC(=O)c1c(Nc2cccc(Cl)c2)n[nH]c1/N=C/c1ccc(-n2cnc3ccccc32)cc1 [Compound B97] |  | D (no greater than 5% inhibition of the RC kinase activity at 1 μM) | 
37 | NC(=O)c1c(Nc2ccc(Cl)cc2)n[nH]c1/N=C/c1ccc(C(F)(F)F)cc1 [Compound B28] |  | D (no greater than 5% inhibition of the RC kinase activity at 1 μM) | 
38 | NC(=O)c1c(Nc2ccccc2Cl)n[nH]c1/N=C/c1ccccc1 [Compound B115] |  | B (no greater than 50% but at least 20% inhibition of the RC kinase activity at 1 μM) | 
39 | COc1cc(O)cc(OC)c1/C=N/c1[nH]nc(Nc2cccc(Cl)c2)c1C(N)=O [Compound B108] |  | B (no greater than 50% but at least 20% inhibition of the RC kinase activity at 1 μM) | 
40 | NC(=O)c1c(Nc2ccccc2)n[nH]c1/N=C/c1ccccc1 [Compound B11] |  | A (at least 50% inhibition of the RC kinase activity at 1 μM) | 
41 | NC(=O)c1c(Nc2ccc([N+](=O)[O-])cc2)n[nH]c1/N=C/c1ccccc1 [Compound B39, (E)-5-(benzylideneamino)-3-((4-nitrophenyl)amino)-1H-pyrazole-4-carboxamide] | 5 to 20 |  | 
42 | NC(=O)c1c(Nc2cccc(Cl)c2)n[nH]c1/N=C/c1ccc(C(F)(F)F)cc1 [Compound B16] |  | D (no greater than 5% inhibition of the RC kinase activity at 1 μM) | 
43 | COc1ccc(/C=N/c2[nH]nc(Nc3cccc(Cl)c3)c2C(N)=O)c(C)c1C [Compound B57] |  | B (no greater than 50% but at least 20% inhibition of the RC kinase activity at 1 μM) | 
44 | CCc1nc(C)c(/C=N/c2[nH]nc(Nc3cccc(Cl)c3)c2C(N)=O)[nH]1 [Compound B70] |  | B (no greater than 50% but at least 20% inhibition of the RC kinase activity at 1 μM) | 
45 | NC(=O)c1c(Nc2cccc(Cl)c2)n[nH]c1/N=C/c1cc(O)ccc1O [Compound B38, 3-((3-chlorophenyl)amino)-5-((2,5-dihydroxybenzylidene)amino)-1H-pyrazole-4-carboxamide] | ≥ 50 |  | 
